# Tests used:
# EGFR L858R = molecular target: T1, EGFR L858R (Homo sapiens, UniProt P00533, L858R); test: Biochemical EGFR inhibition assay (Caliper mobility shift), EGFR L858R; details: biochemical Caliper mobility shift assay, EGFR L858R enzyme; read-out: Enz EGFR L858R IC50
# T1 construct: purchased SignalChem E10-122BG
# Experimental: Inhibitory effects of the compounds of the disclosure were measured in biochemical assays that measure the phosphorylation activity of EGFR enzyme phosphorylates 2.5 micromolar 5-FAM-[…]-CONH2 peptide substrate (ProfilerPro Kinase Peptide Substrate 22, PerkinElmer, Part #760366) in the presence of adenosine-5′-triphosphate (ATP) and varying concentrations of the test compound in 100 mM 2-[4-(2-hydroxyethyl)piperazin-1-yl]ethanesulfonic acid (HEPES), pH 7.5, 10 mM MgCl2, 0.015% Brij-35, 1 mM dithiothreitol (DTT), 1.0% dimehylsulfoxide (DMSO). Assays were performed at 1.0 mM ATP or at ATP Km of the EGFR enzymes. Reactions proceeded until between 10% to 20% total peptides were phosphorylated at room temperature (25° C.) and were terminated with 35 mM 2,2′,2″,2′″-(ethane-1,2-diyldinitrilo)tetraacetic acid (EDTA). Product was detected using the Caliper mobility shift detection method where the phosphorylated peptide (product) and substrate were electrophoretically separated and measured. Percent activity was plotted against log concentration of compound and points to generate an apparent IC50. The following enzyme forms of • EGFR were examples that were used in these assays: • EGFR WT (SignalChem, E10-112G) • EGFR L858R (SignalChem, E10-122BG) • EGFR (d746-750) (SignalChem, E10-122JG) • EGFR L858R C797S (SignalChem, E10-122ZG) • EGFR (d746-750) C797S (SignalChem, E10-122TG)
# [1] = molecular target: intracellular phosphorylation of EGFR (Tyr1068) in PC-9 cells (Homo sapiens, UniProt P00533, DEL746-750); test: PC-9 pEGFR AlphaLISA assay; type: cell-based; details: 4 hours incubation, read-out: Phos EGFR PC9 IC50
# intracellular phosphorylation of EGFR (Tyr1068) in PC-9 cells, sequence (P00533 with tags, fused parts or gaps DEL746-750): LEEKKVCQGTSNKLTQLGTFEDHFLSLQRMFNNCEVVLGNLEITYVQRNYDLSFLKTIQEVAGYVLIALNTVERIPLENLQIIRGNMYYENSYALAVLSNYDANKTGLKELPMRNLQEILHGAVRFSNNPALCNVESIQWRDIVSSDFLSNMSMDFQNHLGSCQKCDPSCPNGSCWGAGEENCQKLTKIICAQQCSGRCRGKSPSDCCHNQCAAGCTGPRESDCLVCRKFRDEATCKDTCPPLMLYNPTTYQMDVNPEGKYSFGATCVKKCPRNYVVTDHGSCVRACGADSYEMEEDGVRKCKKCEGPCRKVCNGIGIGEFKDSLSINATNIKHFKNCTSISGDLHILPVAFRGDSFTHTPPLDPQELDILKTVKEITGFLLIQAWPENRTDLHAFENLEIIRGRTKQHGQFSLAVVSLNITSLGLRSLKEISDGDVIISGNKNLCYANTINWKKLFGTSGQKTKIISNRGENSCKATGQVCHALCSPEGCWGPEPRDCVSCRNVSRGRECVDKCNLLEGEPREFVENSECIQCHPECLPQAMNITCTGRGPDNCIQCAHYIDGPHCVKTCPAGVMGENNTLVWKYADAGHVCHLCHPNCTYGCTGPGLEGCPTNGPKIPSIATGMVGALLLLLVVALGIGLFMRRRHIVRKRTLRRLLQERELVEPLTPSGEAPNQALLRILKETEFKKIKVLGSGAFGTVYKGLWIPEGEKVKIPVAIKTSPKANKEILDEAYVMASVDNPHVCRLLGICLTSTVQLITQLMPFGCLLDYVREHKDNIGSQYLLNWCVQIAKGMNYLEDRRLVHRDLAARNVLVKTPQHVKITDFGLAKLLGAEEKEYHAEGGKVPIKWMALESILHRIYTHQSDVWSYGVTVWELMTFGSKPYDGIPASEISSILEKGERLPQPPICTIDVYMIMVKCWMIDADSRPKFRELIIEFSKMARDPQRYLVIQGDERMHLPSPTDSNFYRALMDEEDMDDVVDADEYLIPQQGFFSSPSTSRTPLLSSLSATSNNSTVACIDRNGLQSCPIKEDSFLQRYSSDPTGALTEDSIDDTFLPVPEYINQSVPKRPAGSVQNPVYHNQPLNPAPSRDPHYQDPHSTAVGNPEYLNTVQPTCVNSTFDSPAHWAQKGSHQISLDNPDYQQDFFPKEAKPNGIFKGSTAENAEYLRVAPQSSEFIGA
# Experimental: PC-9/A431 pEGFR AlphaLISA Assays
# Inhibitory effects of compounds were evaluated in cellular assays that measure level of intracellular phosphorylation of EGFR in PC-9 (ECACC, #90071810, Milipore/Sigma) and A431 cell lines (ATCC, CRL-1555) using AlphaLISA sureFire ultra p-EGFR (Tyr1068) assay kit (PerkinElmer, ALSU-PEGFR-A50K). PC-9 cells were seeded at 3.125×10^5 cells/ml in 40 μL phenol-free DMEM supplemented with 10% FBS per well of a 384 well plate (Corning, 3764), while A431 were seeded at […] in 40 μL in phenol-free DMEM with 0.5% FBS. Cells were allowed to adhere overnight at 37° C./5% CO2. On the next day, compounds were transferred at 4-fold, 10-point serial dilution from compound source plate to cell plates using liquid handler Echo550 and were incubated at 37° C./5% CO2 for 4 hours. A431 cells were stimulated prior harvesting for 10 min with EGF at final concentration of 30 ng/ml in the incubator. Medium was removed from the plates and cells were lysed with 10 μL of 1× AlphaLISA lysis buffer (supplemented with 1× protease/phosphatase inhibitor cocktail) followed by shaking at 600 rpm for 30 minutes at room temperature. Lysates were transferred to Optiplate (Apricot designs) and 5 ul of 1× acceptor bead mix (prepared just before use) was added to each well followed by incubation at room temperature for 1.5-2 h in dark. Then 5 μL of freshly-made donor bead mix is added to each well under subdued lighting or green filters, was mixed well on the shaker and the plate was sealed and left for an overnight incubation at room temperature in dark. On the next day, the plate was read the Envision using standard AlphaLisa settings. Percent of pEGFR inhibition was plotted against log concentration of compounds to generate IC50 values.
# T1 sequence (P00533 25-1210 L858R): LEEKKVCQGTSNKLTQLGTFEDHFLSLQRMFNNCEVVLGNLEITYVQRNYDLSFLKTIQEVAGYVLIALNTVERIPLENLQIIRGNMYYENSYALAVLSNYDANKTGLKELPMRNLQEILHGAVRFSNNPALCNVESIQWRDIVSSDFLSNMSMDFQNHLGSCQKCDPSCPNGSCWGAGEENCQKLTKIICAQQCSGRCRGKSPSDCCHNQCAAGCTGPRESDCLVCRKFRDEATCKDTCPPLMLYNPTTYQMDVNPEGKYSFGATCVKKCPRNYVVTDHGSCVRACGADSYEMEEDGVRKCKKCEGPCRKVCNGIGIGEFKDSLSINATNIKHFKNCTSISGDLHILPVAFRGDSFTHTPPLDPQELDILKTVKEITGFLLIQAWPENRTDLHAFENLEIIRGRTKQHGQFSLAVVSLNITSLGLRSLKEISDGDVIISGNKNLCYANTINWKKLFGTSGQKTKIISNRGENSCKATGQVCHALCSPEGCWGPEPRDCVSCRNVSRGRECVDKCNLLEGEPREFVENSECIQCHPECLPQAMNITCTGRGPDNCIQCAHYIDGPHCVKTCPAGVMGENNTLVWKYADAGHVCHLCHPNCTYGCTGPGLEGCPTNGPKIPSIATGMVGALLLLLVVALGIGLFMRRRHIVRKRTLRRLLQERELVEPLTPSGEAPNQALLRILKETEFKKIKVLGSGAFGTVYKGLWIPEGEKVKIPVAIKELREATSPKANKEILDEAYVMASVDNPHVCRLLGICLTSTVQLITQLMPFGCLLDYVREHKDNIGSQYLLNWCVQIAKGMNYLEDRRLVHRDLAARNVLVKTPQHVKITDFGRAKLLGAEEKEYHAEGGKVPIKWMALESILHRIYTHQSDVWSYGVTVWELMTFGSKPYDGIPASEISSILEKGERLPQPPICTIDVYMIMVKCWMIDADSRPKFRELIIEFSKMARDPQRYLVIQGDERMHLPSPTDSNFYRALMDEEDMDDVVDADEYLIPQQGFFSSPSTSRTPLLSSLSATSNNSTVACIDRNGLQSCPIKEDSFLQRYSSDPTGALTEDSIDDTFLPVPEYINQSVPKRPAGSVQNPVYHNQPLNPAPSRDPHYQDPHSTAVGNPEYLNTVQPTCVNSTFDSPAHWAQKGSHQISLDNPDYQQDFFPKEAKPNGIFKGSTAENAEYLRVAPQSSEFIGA
compound,measurement,setting,value
"C[C@@H](Oc1cc(-c2cnn(C)c2)cc2ncnc(Nc3ccc4ncsc4c3)c12)[C@H]1CNCCO1 (single isomer, unassigned) [Example 208]",IC50,EGFR L858R,≤ 10 nM
"Cn1cc(-c2cc(O[C@@H]3C[C@@H](O)[C@@H](O)C3)c3c(Nc4ccc5ncsc5c4)ncnc3c2)cn1 (single isomer, unassigned) [Example A23]",IC50,EGFR L858R,≤ 10 nM
same,IC50,[1],10.1 to 50 nM
"C[C@H](CO)Oc1cc(N2CCN(C)CC2)cc2ncnc(Nc3ccc4ncsc4c3)c12 (single isomer, unassigned) [Example 294]",IC50,EGFR L858R,≤ 10 nM
same,IC50,[1],10.1 to 50 nM
"COc1nn(C)cc1-c1cc(O[C@H]2CCNC[C@@H]2F)c2c(Nc3ccc4ncsc4c3)ncnc2c1 (single isomer, unassigned) [Example 361]",IC50,EGFR L858R,≤ 10 nM
"COC[C@H](C)Oc1cc(N2CCN(C)CC2)cc2ncnc(Nc3ccc4ncsc4c3)c12 (single isomer, unassigned) [Example 206]",IC50,EGFR L858R,≤ 10 nM
same,IC50,[1],10.1 to 50 nM
"CN1CC[C@@H](Nc2cc3c(Nc4ccc5ncsc5c4)ncnc3cc2-c2ccn(C)n2)[C@H](F)C1 (single isomer, unassigned) [Example 328]",IC50,EGFR L858R,≤ 10 nM
"Cn1cc(-c2cc(O[C@@H]3CCOC[C@@H]3F)c3c(Nc4ccc5ncsc5c4)ncnc3c2)cn1 (single isomer, unassigned) [Example 44]",IC50,EGFR L858R,≤ 10 nM
same,IC50,[1],10.1 to 50 nM
"C[C@H](CO)n1cc(-c2cc(O[C@H](C)C3COC3)c3c(Nc4ccc5ncsc5c4)ncnc3c2)cn1 (single isomer, unassigned) [Example 298]",IC50,EGFR L858R,≤ 10 nM
"CO[C@@H]1CN(C)CC[C@H]1Oc1cc(-c2cnn(C)c2)cc2ncnc(Nc3ccc4ncsc4c3)c12 (single isomer, unassigned) [Example A44]",IC50,EGFR L858R,≤ 10 nM
same,IC50,[1],10.1 to 50 nM
"CN1CC[C@H](Nc2cc3c(Nc4ccc5ncsc5c4)ncnc3cc2-c2ccn(C)n2)[C@H](F)C1 (single isomer, unassigned) [Example A06, N4-(benzo[d]thiazol-6-yl)-N6-((3S,4R)-3-fluoro-1-methylpiperidin-4-yl)-7-(1-methyl-1H-pyrazol-3-yl)quinazoline-4,6-diamine or N4-(benzo[d]thiazol-6-yl)-N6-((3R,4S)-3-fluoro-1-methylpiperidin-4-yl)-7-(1-methyl-1H-pyrazol-3-yl)quinazoline-4,6-diamine]",IC50,EGFR L858R,≤ 10 nM
"CN1C[C@H](F)C[C@H](Oc2cc(-c3cnn(C)c3)cc3ncnc(Nc4ccc5ncsc5c4)c23)C1 (single isomer, unassigned) [Example 337]",IC50,EGFR L858R,≤ 10 nM
"C[C@H](Oc1cc(-c2cnn(C)c2)cc2ncnc(Nc3ccc4ncsc4c3F)c12)C(=O)N1CCOCC1 (single isomer, unassigned) [Example 283]",IC50,EGFR L858R,≤ 10 nM
"COc1nn(C)cc1-c1cc(O[C@H](C)C2COC2)c2c(Nc3ccc4ncsc4c3F)ncnc2c1 (single isomer, unassigned) [Example 79]",IC50,EGFR L858R,≤ 10 nM
"C[C@H](CO)Oc1cc(-c2cnn(C)c2)cc2ncnc(Nc3ccc4ncsc4c3F)c12 (single isomer, unassigned) [Example 290]",IC50,EGFR L858R,≤ 10 nM
"C[C@@H](Oc1cc(-c2cnn(C)c2)cc2ncnc(Nc3ccc4ncsc4c3)c12)[C@H]1CN(C)CCO1 (single isomer, unassigned) [Example 210]",IC50,EGFR L858R,≤ 10 nM
"C[C@@H](Oc1cc(-c2cnn(C)c2)cc2ncnc(Nc3ccc4ncsc4c3F)c12)C(=O)N(C)C (single isomer, unassigned) [Example 280]",IC50,EGFR L858R,≤ 10 nM
"C[C@@H](Oc1cc(-c2cnn(C(C)(C)CO)c2)cc2ncnc(Nc3ccc4ncsc4c3)c12)C1COC1 (single isomer, unassigned) [Example 292]",IC50,EGFR L858R,≤ 10 nM
"C[C@@H](Oc1cc(-c2cnn(C)c2)cc2ncnc(Nc3ccc4ncsc4c3)c12)C(F)F (single isomer, unassigned) [Example 53]",IC50,EGFR L858R,≤ 10 nM
"CN1CC[C@@H](Oc2cc(-c3cnn(C)c3)cc3ncnc(Nc4ccc5ncsc5c4F)c23)C1 [Example 4, (R)-7-fluoro-N-(7-(1-methyl-1H-pyrazol-4-yl)-5-((1-methylpyrrolidin-3-yl)oxy)quinazolin-4-yl)benzo[d]thiazol-6-amine]",IC50,EGFR L858R,10.1 to 50 nM
same,IC50,[1],10.1 to 50 nM
"COC[C@H](C)Oc1cc(N2CCN(C(C)C)C2=O)cc2ncnc(Nc3ccc4ncsc4c3)c12 (single isomer, unassigned) [Example 119]",IC50,EGFR L858R,≤ 10 nM
"COc1cc2c(Nc3ccc4ncsc4c3F)ncnc2cc1-c1cnn(C)c1 [Example 265, 7-fluoro-N-(6-methoxy-7-(1-methyl-1H-pyrazol-4-yl)quinazolin-4-yl)benzo[d]thiazol-6-amine]",IC50,EGFR L858R,≤ 10 nM
same,IC50,[1],≤ 10 nM
"COc1nn(C)cc1-c1cc(O[C@@H](C)C(=O)N(C)C)c2c(Nc3ccc4ncsc4c3F)ncnc2c1 (single isomer, unassigned) [Example 288]",IC50,EGFR L858R,≤ 10 nM
"CN1CC[C@H](Oc2cc(-c3cnn(C)c3)cc3ncnc(Nc4ccc5ncsc5c4F)c23)C1 [Example 16, (S)-7-fluoro-N-(7-(1-methyl-1H-pyrazol-4-yl)-5-((1-methylpyrrolidin-3-yl)oxy)quinazolin-4-yl)benzo[d]thiazol-6-amine]",IC50,EGFR L858R,10.1 to 50 nM
"Cn1cc(-c2cc(O[C@@H]3CC[C@@H]3O)c3c(Nc4ccc5ncsc5c4)ncnc3c2)cn1 (single isomer, unassigned) [Example A52]",IC50,EGFR L858R,≤ 10 nM
"CN(C)C[C@@H](Oc1cc(-c2cnn(C)c2)cc2ncnc(Nc3ccc4ncsc4c3)c12)C(F)F (single isomer, unassigned) [Example 152]",IC50,EGFR L858R,≤ 10 nM
"CN1CC[C@H](Oc2cc(-c3cnn(C)c3)cc3ncnc(Nc4ccc5ncsc5c4)c23)[C@@H](F)C1 (single isomer, unassigned) [Example 345]",IC50,EGFR L858R,≤ 10 nM
"COCC[C@@H](C)Oc1cc(-c2cnn(C)c2)cc2ncnc(Nc3ccc4ncsc4c3F)c12 (single isomer, unassigned) [Example 109]",IC50,EGFR L858R,≤ 10 nM
"CN1CC[C@H](Oc2cc(-c3cnn(C)c3)cc3ncnc(Nc4ccc5ncsc5c4)c23)[C@@H](O)C1 (single isomer, unassigned) [Example A36]",IC50,EGFR L858R,≤ 10 nM
same,IC50,[1],10.1 to 50 nM
"C[C@@H](Oc1cc(-c2cnn(C)c2)cc2ncnc(Nc3ccc4ncsc4c3F)c12)[C@H]1CCOC1 (single isomer, unassigned) [Example 89]",IC50,EGFR L858R,≤ 10 nM
"COc1nn(C)cc1-c1cc(O[C@H](C)C2COC2)c2c(Nc3ccc4ncsc4c3)ncnc2c1 (single isomer, unassigned) [Example 171]",IC50,EGFR L858R,≤ 10 nM
"C[C@@H](Oc1cc(-c2cnn(C)c2)cc2ncnc(Nc3ccc4ncsc4c3F)c12)C1(C)COC1 (single isomer, unassigned) [Example 87]",IC50,EGFR L858R,≤ 10 nM
"C[C@H](CN(C)C)Oc1cc(N2CC[C@@H](C(C)(C)O)C2)cc2ncnc(Nc3ccc4ncsc4c3)c12 (single isomer, unassigned) [Example 156]",IC50,EGFR L858R,≤ 10 nM
"Cn1cc(-c2cc(O[C@H]3CCNC[C@@H]3F)c3c(Nc4ccc5ncsc5c4)ncnc3c2)cn1 (single isomer, unassigned) [Example 347]",IC50,EGFR L858R,≤ 10 nM
"CN1CC[C@@H](Oc2cc(-c3cnn(C)c3)cc3ncnc(Nc4ccc5ncsc5c4)c23)[C@@H](F)C1 (single isomer, unassigned) [Example 341]",IC50,EGFR L858R,≤ 10 nM
"CC[C@@H](Oc1cc(-c2cnn(C)c2)cc2ncnc(Nc3ccc4ncsc4c3F)c12)C1COC1 (single isomer, unassigned) [Example 93]",IC50,EGFR L858R,≤ 10 nM
"C[C@@H](Oc1cc(-c2cnn(CC(C)(C)O)c2)cc2ncnc(Nc3ccc4ncsc4c3)c12)C1COC1 (single isomer, unassigned) [Example 128]",IC50,EGFR L858R,≤ 10 nM
"CC(Oc1cc(-c2cn[nH]c2)cc2ncnc(Nc3ccc4ncsc4c3)c12)C1COC1 (single isomer, unassigned) [Example 123]",IC50,EGFR L858R,≤ 10 nM
